From publication PMC7181660, “A novel specific PERK activator reduces toxicity and extends survival in Huntington's disease models” (Scientific Reports, 2020)
Read-outs that look alike come from different tables or passages of the source.

Key:
Assay in all cases: biochemical
Format in all cases: biochemical
panel of 391 kinases [1] = molecular target: panel of 391 kinases (Homo sapiens, UniProt Q8N5S9); settings: CAMKK1, MK-28 1 µM, ATP 1 µM
panel of 391 kinases [2] = molecular target: panel of 391 kinases (Homo sapiens, UniProt P48729); settings: CK1a1, MK-28 1 µM, ATP 1 µM
panel of 391 kinases [3] = molecular target: panel of 391 kinases (Homo sapiens, UniProt P51955); settings: NEK2, MK-28 1 µM, ATP 1 µM
panel of 391 kinases [4] = molecular target: panel of 391 kinases (Homo sapiens, UniProt Q9P286); settings: PAK5, MK-28 1 µM, ATP 1 µM
panel of 391 kinases [5] = molecular target: panel of 391 kinases (Homo sapiens, UniProt P08631); settings: HCK, MK-28 1 µM, ATP 1 µM
panel of 391 kinases [6] = molecular target: panel of 391 kinases (Homo sapiens, UniProt P50613); settings: CDK7/cyclin H, MK-28 1 µM, ATP 1 µM
panel of 391 kinases [7] = molecular target: panel of 391 kinases (Homo sapiens, UniProt Q9UBS0); settings: p70S6Kb/RPS6KB2, MK-28 1 µM, ATP 1 µM
panel of 391 kinases [8] = molecular target: panel of 391 kinases (Homo sapiens, UniProt Q15375); settings: EPHA7, MK-28 1 µM, ATP 1 µM
panel of 391 kinases [9] = molecular target: panel of 391 kinases (Homo sapiens, UniProt P09769); settings: FGR, MK-28 1 µM, ATP 1 µM
panel of 391 kinases [10] = molecular target: panel of 391 kinases (Homo sapiens, UniProt P17948); settings: FLT1/VEGFR1, MK-28 1 µM, ATP 1 µM
panel of 391 kinases [11] = molecular target: panel of 391 kinases (Homo sapiens, UniProt O95747); settings: OSR1/OXSR1, MK-28 1 µM, ATP 1 µM
panel of 391 kinases [12] = molecular target: panel of 391 kinases (Homo sapiens, UniProt P31751); settings: AKT2, MK-28 1 µM, ATP 1 µM
panel of 391 kinases [13] = molecular target: panel of 391 kinases (Homo sapiens, UniProt P78362); settings: SRPK2, MK-28 1 µM, ATP 1 µM
panel of 391 kinases [14] = molecular target: panel of 391 kinases (Homo sapiens, UniProt Q14012); settings: CAMK1a, MK-28 1 µM, ATP 1 µM
panel of 391 kinases [15] = molecular target: panel of 391 kinases (Homo sapiens, UniProt Q9Y243); settings: AKT3, MK-28 1 µM, ATP 1 µM
panel of 391 kinases [16] = molecular target: panel of 391 kinases (Homo sapiens, UniProt Q9Y572); settings: RIPK3, MK-28 1 µM, ATP 1 µM
panel of 391 kinases [17] = molecular target: panel of 391 kinases (Homo sapiens, UniProt Q96RR4); settings: CAMKK2, MK-28 1 µM, ATP 1 µM
panel of 391 kinases [18] = molecular target: panel of 391 kinases (Homo sapiens, UniProt P50750); settings: MK-28 1 µM, ATP 1 µM; for remaining activity at 1 µM: read-out: % Enzyme Activity (relative to DMSO controls)
panel of 391 kinases [19] = molecular target: panel of 391 kinases (Homo sapiens, UniProt Q9NYY3); settings: PLK2, MK-28 1 µM, ATP 1 µM
panel of 391 kinases [20] = molecular target: panel of 391 kinases (Homo sapiens, UniProt O14965); settings: Aurora A, MK-28 1 µM, ATP 1 µM
panel of 391 kinases [21] = molecular target: panel of 391 kinases (Homo sapiens, UniProt Q9BWU1); settings: CDK19/cyclin C, MK-28 1 µM, ATP 1 µM
panel of 391 kinases [22] = molecular target: panel of 391 kinases (Homo sapiens, UniProt P57078); settings: RIPK4, MK-28 1 µM, ATP 1 µM
panel of 391 kinases [23] = molecular target: panel of 391 kinases (Homo sapiens, UniProt Q9BXA6); settings: SSTK/TSSK6, MK-28 1 µM, ATP 1 µM
panel of 391 kinases [24] = molecular target: panel of 391 kinases (Homo sapiens, UniProt P04626); settings: ERBB2/HER2, MK-28 1 µM, ATP 1 µM
panel of 391 kinases [25] = molecular target: panel of 391 kinases (Homo sapiens, UniProt Q6IQ55); settings: TTBK2, MK-28 1 µM, ATP 1 µM
panel of 391 kinases [26] = molecular target: panel of 391 kinases (Homo sapiens, UniProt P37173); settings: TGFBR2, MK-28 1 µM, ATP 1 µM
[27] = read-out: % Enzyme Activity (relative to DMSO controls)

With `CN(/N=C\c1ccc(O)c(O)c1)c1nc(-c2ccccc2)cc(-c2ccccc2)n1` [MK-28] the “% Enzyme Activity (relative to DMSO controls)” value (panel of 391 kinases [1]) was 101.88%, the remaining activity at 1 µM (panel of 391 kinases [1]; [27]) was 102% and the “% Enzyme Activity (relative to DMSO controls)” value (panel of 391 kinases [2]) was 98.77%. The remaining activity at 1 µM (panel of 391 kinases [2]; [27]) was 99.5%, the “% Enzyme Activity (relative to DMSO controls)” value (panel of 391 kinases [3]) was 98.55% and the remaining activity at 1 µM (panel of 391 kinases [3]; [27]) was 99.2%. The “% Enzyme Activity (relative to DMSO controls)” value (panel of 391 kinases [4]) was 72.57%, the remaining activity at 1 µM (panel of 391 kinases [4]; [27]) was 77.2% and the “% Enzyme Activity (relative to DMSO controls)” value (panel of 391 kinases [5]) was 73.97%. The remaining activity at 1 µM (panel of 391 kinases [5]; [27]) was 75.6%, the “% Enzyme Activity (relative to DMSO controls)” value (panel of 391 kinases [6]) was 106.19% and the remaining activity at 1 µM (panel of 391 kinases [6]; [27]) was 108%. For the same molecule, the “% Enzyme Activity (relative to DMSO controls)” value (panel of 391 kinases [7]) was 91.85%, the remaining activity at 1 µM (panel of 391 kinases [7]; [27]) was 93.6% and the “% Enzyme Activity (relative to DMSO controls)” value (panel of 391 kinases [8]) was 96.58%. For the same molecule, the remaining activity at 1 µM (panel of 391 kinases [8]; [27]) was 98.6%, the “% Enzyme Activity (relative to DMSO controls)” value (panel of 391 kinases [9]) was 99.92% and the remaining activity at 1 µM (panel of 391 kinases [9]; [27]) was 100%. The “% Enzyme Activity (relative to DMSO controls)” value (panel of 391 kinases [10]) was 84.43%, the remaining activity at 1 µM (panel of 391 kinases [10]; [27]) was 84.8% and the “% Enzyme Activity (relative to DMSO controls)” value (panel of 391 kinases [11]) was 101.98%. For the same molecule, the remaining activity at 1 µM (panel of 391 kinases [11]; [27]) was 105%, the “% Enzyme Activity (relative to DMSO controls)” value (panel of 391 kinases [12]) was 95.73% and the remaining activity at 1 µM (panel of 391 kinases [12]; [27]) was 98.1%. For the same molecule, the “% Enzyme Activity (relative to DMSO controls)” value (panel of 391 kinases [13]) was 102.82%, the remaining activity at 1 µM (panel of 391 kinases [13]; [27]) was 106% and the “% Enzyme Activity (relative to DMSO controls)” value (panel of 391 kinases [14]) was 77.40%. The remaining activity at 1 µM (panel of 391 kinases [14]; [27]) was 77.7%, the “% Enzyme Activity (relative to DMSO controls)” value (panel of 391 kinases [15]) was 81.92% and the remaining activity at 1 µM (panel of 391 kinases [15]; [27]) was 82.2%. The “% Enzyme Activity (relative to DMSO controls)” value (panel of 391 kinases [16]) was 100.16%, the remaining activity at 1 µM (panel of 391 kinases [16]; [27]) was 101% and the “% Enzyme Activity (relative to DMSO controls)” value (panel of 391 kinases [17]) was 93.50%. The remaining activity at 1 µM (panel of 391 kinases [17]; [27]) was 97.2%, the “% Enzyme Activity (relative to DMSO controls)” value (panel of 391 kinases [18]; CDK9/cyclin K) was 95.35% and the remaining activity at 1 µM (panel of 391 kinases [18]; CDK9/cyclin K) was 96.1%. For the same molecule, the “% Enzyme Activity (relative to DMSO controls)” value (panel of 391 kinases [18]; CDK9/cyclin T1) was 83.98%, the remaining activity at 1 µM (panel of 391 kinases [18]; CDK9/cyclin T1) was 84.2% and the “% Enzyme Activity (relative to DMSO controls)” value (panel of 391 kinases [18]; CDK9/cyclin T2) was 97.55%. For the same molecule, the remaining activity at 1 µM (panel of 391 kinases [18]; CDK9/cyclin T2) was 103%, the “% Enzyme Activity (relative to DMSO controls)” value (panel of 391 kinases [19]) was 97.72% and the remaining activity at 1 µM (panel of 391 kinases [19]; [27]) was 98.5%. The “% Enzyme Activity (relative to DMSO controls)” value (panel of 391 kinases [20]) was 71.13%, the remaining activity at 1 µM (panel of 391 kinases [20]; [27]) was 73.2% and the “% Enzyme Activity (relative to DMSO controls)” value (panel of 391 kinases [21]) was 105.26%. For the same molecule, the remaining activity at 1 µM (panel of 391 kinases [21]; [27]) was 108%, the “% Enzyme Activity (relative to DMSO controls)” value (panel of 391 kinases [22]) was 89.94% and the remaining activity at 1 µM (panel of 391 kinases [22]; [27]) was 95.1%. For the same molecule, the “% Enzyme Activity (relative to DMSO controls)” value (panel of 391 kinases [23]) was 97.30%, the remaining activity at 1 µM (panel of 391 kinases [23]; [27]) was 97.6% and the “% Enzyme Activity (relative to DMSO controls)” value (panel of 391 kinases [24]) was 98.41%. The remaining activity at 1 µM (panel of 391 kinases [24]; [27]) was 99.3%, the “% Enzyme Activity (relative to DMSO controls)” value (panel of 391 kinases [25]) was 97.38% and the remaining activity at 1 µM (panel of 391 kinases [25]; [27]) was 98.9%. The “% Enzyme Activity (relative to DMSO controls)” value (panel of 391 kinases [26]) was 94.50% and the remaining activity at 1 µM (panel of 391 kinases [26]; [27]) was 102%.
